Reference: patent publication US9371265B2, “Compositions and methods related to inhibitors of JAK kinase” (EP PHARMA, INC., priority 2012, dated 2016)

Columns and labels:
[1] = Stability analysis in solvents using NMR and HPLC; format: physicochemical
Experimental: FIG. 3. EP009 is structurally stable under varying solvent and temperature conditions. EP009 was dissolved in DMSO, DMSO:H20 (3:2 ratio), or methanol, and incubated at 25° C. or 37° C. for 24 hours.
FIG. 11 illustrates the dose-dependent effect of (FIG. 11A) freshly prepared EP-009(P) and (FIG. 11B) EP-009(P) stored in aqueous conditions for 48 hr at room temperature on IL-2/JAK3-dependent Kit225 cell viability. FIG. 12 illustrates LC-MS/MS detection of EP-009 (5 ng/ml) in mouse plasma at a retention time of 1.91 min.

SU-DHL-1 cells = assay: SU-DHL-1 cell viability (MTS); format: cell-based; conditions: Homo sapiens; SU-DHL-1, 72 hours
Experimental: (§1) FIGS. 7A-7C. EP009 reduces ALCL cell viability through induction of caspase 3 mediated apoptosis. (A) SUP-M2, SU-DHL-1 or H2228 cells were cultured with increasing amounts of EP009 (0-10 μM) for 72 hours and cell viability measured with the MTS tetrazolium salt assay. Values represent mean absorbance (OD490-OD650 nm) normalized to vehicle (PBS) treated control cells, while error bars represent the standard deviation (n=3). (B) SU-DHL-1 cells were treated with vehicle (PBS) or increasing amounts of EP009 (0-50 μM) for 24 hours. Cells were then lysed, clarified, and subjected to Luminex multiplex analysis to detect activated caspase 3 and (C) cleaved PARP. Values represent MFI normalized to corresponding GAPDH MFI, while error bars represent the standard deviation (n=2). Representative data from three independent experiments are shown. Statistical significance was determined using Student's t-test. (*, p<0.05).
(§2) Cell viability was assessed with 3-(4,5-dimethylthiazol-2-yl)-5-(3-carboxymethoxyphenyl)-2-(4-sulfophenyl)-2H-tetrazolium salt (MTS) reagent (Promega) in triplicates according to the manufacturer's instructions. Three independent experiments were performed. The error bars represent standard deviation.

SUP-M2 cells = assay: SUP-M2 cell viability (MTS); format: cell-based; conditions: Homo sapiens; SUP-M2, 72 hours
Experimental: as §1, §2

AKT1 = AKT1 (Homo sapiens, UniProt P31749); assay: Kinase panel: AKT1; format: biochemical; conditions: 10 μM EP009
Experimental: (§3) Achieving JAK3 selectivity remains a significant challenge in the development of new small molecules for the treatment of cancer and immune-derived diseases. As such, the inventors employed cell-based screening assays of small-molecule libraries based upon the chemical scaffold of the established JAK3 inhibitor NC1153 (Stepkowski et al., J Immunol. (2005), 175(7):4236-4246) EP009 (FIG. 2A) was selected as a lead compound due to improved intrinsic stability (>95% purity in various solvents at 37° C. for 24 hours; FIG. 3) and high-degree of JAK3 selectivity. To test JAK3 versus JAK2 specificity of EP009, the IL-2/JAK3-dependent Kit225, and IL-3/JAK2-dependent BaF/3 cell lines were used. Kit225 and BaF/3 cells growing in the presence of IL-2 or IL-3, respectively, were treated with ascending concentrations of EP009 for 12 hours and cellular JAK3 and JAK2 tyrosine phosphorylation levels detected by Western blot analysis (FIGS. 2B and 2C). Following densitometric analysis, EP009 was determined to dose-dependently reduce IL-2-mediated JAK3 tyrosine phosphorylation with a cellular 50% inhibitory concentration (IC50) between 10 and 20 μM (FIG. 2B). […] To globally evaluate specificity, the inhibitory activity of EP009 was measured against a panel of protein kinases distributed throughout the kinome using the scanEDGE profiling service (KINOMEscan). […]

BRAF(V600E) = BRAF(V600E) (Homo sapiens, UniProt P15056, V600E); assay: Kinase panel: BRAF(V600E); format: biochemical; conditions: 10 μM EP009
Experimental: as §3

FLT3 = FLT3 (Homo sapiens, UniProt P36888); assay: Kinase panel: FLT3; format: biochemical; conditions: 10 μM EP009
Sequence of FLT3 (P36888 27-993): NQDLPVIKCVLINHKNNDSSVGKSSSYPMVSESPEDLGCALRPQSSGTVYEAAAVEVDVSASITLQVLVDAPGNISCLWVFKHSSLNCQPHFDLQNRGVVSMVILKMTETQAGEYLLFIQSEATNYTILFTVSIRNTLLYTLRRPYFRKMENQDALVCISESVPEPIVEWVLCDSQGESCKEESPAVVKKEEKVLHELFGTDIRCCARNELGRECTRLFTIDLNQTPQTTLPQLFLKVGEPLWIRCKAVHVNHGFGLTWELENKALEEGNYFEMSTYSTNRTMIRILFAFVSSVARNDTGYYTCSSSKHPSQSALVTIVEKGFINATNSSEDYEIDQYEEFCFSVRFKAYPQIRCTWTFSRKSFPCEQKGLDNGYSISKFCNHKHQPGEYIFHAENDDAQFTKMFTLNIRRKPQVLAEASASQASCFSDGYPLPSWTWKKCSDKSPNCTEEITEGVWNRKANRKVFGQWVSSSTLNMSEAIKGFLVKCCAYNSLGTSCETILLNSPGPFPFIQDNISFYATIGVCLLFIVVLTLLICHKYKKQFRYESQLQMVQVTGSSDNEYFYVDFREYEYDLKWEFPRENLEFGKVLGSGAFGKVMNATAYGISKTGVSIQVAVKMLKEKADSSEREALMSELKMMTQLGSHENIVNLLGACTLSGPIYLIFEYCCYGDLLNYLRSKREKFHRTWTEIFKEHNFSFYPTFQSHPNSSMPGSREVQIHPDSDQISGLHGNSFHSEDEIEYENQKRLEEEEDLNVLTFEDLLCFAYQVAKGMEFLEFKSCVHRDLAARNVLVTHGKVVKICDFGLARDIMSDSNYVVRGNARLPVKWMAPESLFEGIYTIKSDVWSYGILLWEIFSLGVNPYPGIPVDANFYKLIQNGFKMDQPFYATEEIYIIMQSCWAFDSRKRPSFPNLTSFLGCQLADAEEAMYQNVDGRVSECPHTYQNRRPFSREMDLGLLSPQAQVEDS
Experimental: as §3

MKNK2 = MKNK2 (Homo sapiens, UniProt Q9HBH9); assay: Kinase panel: MKNK2; format: biochemical; conditions: 10 μM EP009
Sequence of MKNK2 (Q9HBH9 whole entry): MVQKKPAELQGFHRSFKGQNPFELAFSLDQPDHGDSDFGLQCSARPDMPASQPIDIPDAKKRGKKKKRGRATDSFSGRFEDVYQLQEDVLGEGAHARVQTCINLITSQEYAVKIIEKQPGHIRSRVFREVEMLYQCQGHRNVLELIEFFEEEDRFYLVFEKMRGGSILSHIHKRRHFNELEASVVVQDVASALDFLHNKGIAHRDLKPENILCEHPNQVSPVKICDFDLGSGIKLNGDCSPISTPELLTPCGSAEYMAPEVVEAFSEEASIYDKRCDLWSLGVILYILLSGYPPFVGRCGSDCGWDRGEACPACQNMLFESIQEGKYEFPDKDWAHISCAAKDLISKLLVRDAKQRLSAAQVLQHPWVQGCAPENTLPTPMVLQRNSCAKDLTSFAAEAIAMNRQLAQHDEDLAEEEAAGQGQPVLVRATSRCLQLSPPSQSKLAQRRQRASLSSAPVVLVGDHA
Experimental: as §3

PAK4 = PAK4 (Homo sapiens, UniProt O96013); assay: Kinase panel: PAK4; format: biochemical; conditions: 10 μM EP009
Sequence of PAK4 (O96013 whole entry): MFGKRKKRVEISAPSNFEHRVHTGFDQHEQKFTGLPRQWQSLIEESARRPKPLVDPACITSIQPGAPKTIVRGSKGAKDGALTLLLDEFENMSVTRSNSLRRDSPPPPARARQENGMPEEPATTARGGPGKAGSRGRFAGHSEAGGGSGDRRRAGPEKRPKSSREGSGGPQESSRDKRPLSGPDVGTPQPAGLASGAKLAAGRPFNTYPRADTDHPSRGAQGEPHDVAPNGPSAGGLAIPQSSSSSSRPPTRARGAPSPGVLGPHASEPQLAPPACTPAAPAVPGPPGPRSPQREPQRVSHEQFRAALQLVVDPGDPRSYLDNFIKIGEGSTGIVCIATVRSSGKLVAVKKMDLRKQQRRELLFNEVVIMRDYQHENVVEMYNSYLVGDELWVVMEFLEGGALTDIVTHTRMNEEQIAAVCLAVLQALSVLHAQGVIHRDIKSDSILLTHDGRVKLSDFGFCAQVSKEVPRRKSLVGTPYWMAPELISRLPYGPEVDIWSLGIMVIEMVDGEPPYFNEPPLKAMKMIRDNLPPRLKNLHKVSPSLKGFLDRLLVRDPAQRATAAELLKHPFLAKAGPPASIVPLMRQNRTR
Experimental: as §3

PLK1 = PLK1 (Homo sapiens, UniProt P53350); assay: Kinase panel: PLK1; format: biochemical; conditions: 10 μM EP009
Sequence of PLK1 (P53350 whole entry): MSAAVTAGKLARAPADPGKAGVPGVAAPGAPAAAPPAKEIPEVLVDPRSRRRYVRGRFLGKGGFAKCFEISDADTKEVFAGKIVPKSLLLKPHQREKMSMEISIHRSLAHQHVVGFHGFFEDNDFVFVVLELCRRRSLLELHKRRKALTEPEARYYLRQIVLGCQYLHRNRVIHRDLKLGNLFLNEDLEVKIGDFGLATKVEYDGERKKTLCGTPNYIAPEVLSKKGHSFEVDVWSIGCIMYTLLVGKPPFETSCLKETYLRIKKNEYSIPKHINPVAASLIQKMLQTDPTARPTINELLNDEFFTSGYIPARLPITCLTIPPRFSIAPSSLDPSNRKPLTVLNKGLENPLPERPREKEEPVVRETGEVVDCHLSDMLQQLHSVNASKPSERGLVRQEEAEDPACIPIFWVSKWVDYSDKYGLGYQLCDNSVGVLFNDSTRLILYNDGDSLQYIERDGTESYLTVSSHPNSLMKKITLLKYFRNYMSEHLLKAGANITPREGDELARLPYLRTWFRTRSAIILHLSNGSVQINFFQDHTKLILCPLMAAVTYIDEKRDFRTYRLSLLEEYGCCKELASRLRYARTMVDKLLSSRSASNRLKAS
Experimental: as §3

RIOK2 = RIOK2 (Homo sapiens, UniProt Q9BVS4); assay: Kinase panel: RIOK2; format: biochemical; conditions: 10 μM EP009
Sequence of RIOK2 (Q9BVS4 whole entry): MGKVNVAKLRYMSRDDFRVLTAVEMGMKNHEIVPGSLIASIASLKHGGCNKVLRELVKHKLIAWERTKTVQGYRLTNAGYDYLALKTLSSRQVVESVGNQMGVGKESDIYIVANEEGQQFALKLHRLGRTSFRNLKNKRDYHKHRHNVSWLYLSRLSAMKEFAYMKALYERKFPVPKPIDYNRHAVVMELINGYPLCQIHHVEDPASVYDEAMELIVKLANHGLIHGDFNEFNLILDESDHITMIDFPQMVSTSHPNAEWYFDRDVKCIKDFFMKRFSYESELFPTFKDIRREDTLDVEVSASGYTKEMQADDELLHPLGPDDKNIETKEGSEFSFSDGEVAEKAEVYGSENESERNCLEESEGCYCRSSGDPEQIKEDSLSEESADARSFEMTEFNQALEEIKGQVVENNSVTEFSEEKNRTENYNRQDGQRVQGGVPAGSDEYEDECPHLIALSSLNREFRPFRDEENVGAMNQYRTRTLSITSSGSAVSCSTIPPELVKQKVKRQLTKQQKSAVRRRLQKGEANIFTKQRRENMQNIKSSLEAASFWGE
Experimental: as §3

TRKA = TRKA (Homo sapiens, UniProt P04629); assay: Kinase panel: TRKA; format: biochemical; conditions: 10 μM EP009
Sequence of TRKA (P04629 33-796): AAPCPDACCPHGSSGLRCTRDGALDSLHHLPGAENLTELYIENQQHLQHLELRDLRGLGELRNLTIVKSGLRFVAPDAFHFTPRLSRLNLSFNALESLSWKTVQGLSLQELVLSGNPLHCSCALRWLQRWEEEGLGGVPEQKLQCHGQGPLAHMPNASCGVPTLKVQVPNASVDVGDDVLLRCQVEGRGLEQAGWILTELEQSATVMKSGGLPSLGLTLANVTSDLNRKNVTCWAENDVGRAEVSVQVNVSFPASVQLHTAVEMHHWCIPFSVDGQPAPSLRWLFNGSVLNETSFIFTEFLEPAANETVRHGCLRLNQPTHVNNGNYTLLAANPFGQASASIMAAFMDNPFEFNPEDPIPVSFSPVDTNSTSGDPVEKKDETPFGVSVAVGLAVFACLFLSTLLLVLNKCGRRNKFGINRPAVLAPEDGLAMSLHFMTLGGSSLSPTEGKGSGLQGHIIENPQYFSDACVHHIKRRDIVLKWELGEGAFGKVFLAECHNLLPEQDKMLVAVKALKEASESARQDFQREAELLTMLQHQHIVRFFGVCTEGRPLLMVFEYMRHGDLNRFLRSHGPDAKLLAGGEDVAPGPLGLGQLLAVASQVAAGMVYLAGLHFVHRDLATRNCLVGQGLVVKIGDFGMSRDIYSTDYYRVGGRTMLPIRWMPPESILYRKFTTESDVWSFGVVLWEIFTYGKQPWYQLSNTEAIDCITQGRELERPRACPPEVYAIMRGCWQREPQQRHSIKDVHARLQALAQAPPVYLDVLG
Experimental: as §3

ULK2 = ULK2 (Homo sapiens, UniProt Q8IYT8); assay: Kinase panel: ULK2; format: biochemical; conditions: 10 μM EP009
Sequence of ULK2 (Q8IYT8 whole entry): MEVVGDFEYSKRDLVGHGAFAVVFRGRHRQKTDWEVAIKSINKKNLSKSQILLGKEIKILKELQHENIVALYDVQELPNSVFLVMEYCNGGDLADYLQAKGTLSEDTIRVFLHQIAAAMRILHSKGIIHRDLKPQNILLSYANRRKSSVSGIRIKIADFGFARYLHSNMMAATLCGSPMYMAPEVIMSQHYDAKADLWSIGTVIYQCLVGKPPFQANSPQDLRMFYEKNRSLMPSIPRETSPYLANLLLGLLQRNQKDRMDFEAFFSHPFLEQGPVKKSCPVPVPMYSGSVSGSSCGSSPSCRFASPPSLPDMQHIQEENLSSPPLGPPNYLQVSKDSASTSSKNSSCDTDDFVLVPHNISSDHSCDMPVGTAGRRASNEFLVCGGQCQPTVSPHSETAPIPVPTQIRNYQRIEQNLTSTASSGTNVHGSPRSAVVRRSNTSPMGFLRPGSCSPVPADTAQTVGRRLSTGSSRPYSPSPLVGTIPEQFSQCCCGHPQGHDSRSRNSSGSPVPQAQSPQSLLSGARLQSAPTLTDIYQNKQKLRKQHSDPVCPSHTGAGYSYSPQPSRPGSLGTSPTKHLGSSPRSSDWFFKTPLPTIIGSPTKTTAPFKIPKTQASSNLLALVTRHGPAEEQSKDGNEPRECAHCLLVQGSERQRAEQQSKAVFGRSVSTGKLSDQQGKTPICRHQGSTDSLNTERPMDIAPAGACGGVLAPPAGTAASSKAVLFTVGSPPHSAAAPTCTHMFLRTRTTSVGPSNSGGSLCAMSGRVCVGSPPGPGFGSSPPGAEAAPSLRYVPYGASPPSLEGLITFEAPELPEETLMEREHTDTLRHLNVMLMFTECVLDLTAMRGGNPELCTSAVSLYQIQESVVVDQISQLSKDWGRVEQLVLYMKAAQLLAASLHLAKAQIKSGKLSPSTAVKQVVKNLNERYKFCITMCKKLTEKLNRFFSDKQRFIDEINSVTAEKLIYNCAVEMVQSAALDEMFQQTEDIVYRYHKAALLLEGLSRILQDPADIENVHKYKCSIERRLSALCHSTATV
Experimental: as §3

C=C1CCCCCCCCCC(CO)C1=O (stereo not shown) [EP009, 2-(Hydroxymethyl)-12-methylenecyclododecanone]
stability under various solubility conditions ([1]; 24 hr at 25° C. and 37° C.): stabile
intrinsic stability (purity) ([1]; various solvents at 37° C. for 24 hours): > 95%
IC50 (SU-DHL-1 cells): 5 µM
IC50 (SUP-M2 cells): 5 µM
Kinase Activity (% of Control) (AKT1): 100 % of Control
Kinase Activity (% of Control) (BRAF(V600E)): 76 % of Control
Kinase Activity (% of Control) (FLT3): 99 % of Control
Kinase Activity (% of Control) (MKNK2): 100 % of Control
Kinase Activity (% of Control) (PAK4): 100 % of Control
Kinase Activity (% of Control) (PLK1): 100 % of Control
Kinase Activity (% of Control) (RIOK2): 69 % of Control
Kinase Activity (% of Control) (TRKA): 65 % of Control
Kinase Activity (% of Control) (ULK2): 58 % of Control
